Source: patent US6432416B1, “Anti-microbial power coating” (Dupont Powder Coatings USA, Inc., priority 1997, dated 2002)

Experiments:
[1] = tested on: Staphylococcus aureus, Escherichia coli, and Salmonella choleraesuis; test: AATCC Test Method 147 at higher anti-microbial concentration (zones of inhibition)
[2] = tested on: Aspergillus niger (ATCC 6275), Penicillium funiculosum (ATCC 11797), and Aureobasidium pullulans (ATCC 9348); test: Resistance to fungal growth, ASTM D5590-95, mixed spore suspension; conditions: concentration of 1 percent; four weeks of exposure to fungus spores
Protocol: Resistance to fungal growth was tested generally in accordance with ASTM D5590-95. […] Samples were aseptically placed onto a modified malt agar plate and then each sample was inoculated.
The same samples were also exposed to fungus spores for a period of four weeks.

[3] = tested on: Pseudomonas aeruginosa, Escherichia coli, and Salmonella typhinurium; test: Long-term anti-microbial activity test of cured powder coatings (bacterial coverage rating); conditions: cured epoxy powder coating; for AVERAGE BACTERIAL COVERAGE: growth rating 0 (good) to 4 (poor), averaged over the different samples (0.1 and 1 percent additive, different thickness), after four weeks; for bacterial coverage / activity relative to the control: long-term test
Protocol: A long-term anti-microbial activity test was carried out to determine if selected anti-microbial agents maintain their anti-microbial activity after being incorporated into powder coatings and cured.
Six anti-microbial agents were selected for experimentation. […] For each powder coating formulation, one of the six anti-microbial agents was added at concentrations of 0.1 percent and 1 percent of the total resin weight.
Samples containing one of the six additives at the two concentrations in the coating matrix were prepared. […] Controls containing the coating formulation with no additive and controls containing only the black silicone resin used for edge coverage were included.
The target bacterial organisms were Pseudomonas aeruginosa, Escherichia coli, and Salmonella typhinurium. Five groups of samples were prepared. […] Each of the following samples was prepared with an additive concentration of 1 percent of the resin by weight.
The results were then rated on a scale of “0” (good performance) to “4” (poor performance) based on the number of colony-forming units observed. The growth ratings, which were averaged over the different samples, are based on the following numerical rating system:
0=No contamination (sterile).
1=Trace of contamination (1-9 colonies per “streak-inch”).
2=Light contamination (10-99 colonies per “streak-inch”).
3=Moderate contamination (greater than 100 colonies, but still distinguishable).
4=Heavy contamination (continuous smear of growth).

[4] = tested on: Pseudomonas aeruginosa, Staphylococcus aureus, and Escherichia coli; test: Shorter-term bacterial test per ASTM D 5588-94; type: cell-based; conditions: after 72 hours of incubation; 0.1 percent and 1 percent formulations
Protocol: Steel coupons were coated with the Fungitrol® 11, Butyl Parabens®, and Amerstat® 300 anti-microbial formulations, at 0.1 percent and 1 percent, and exposed as per ASTM D 5588-94 to a mixture containing the bacteria Pseudomonas aeruginosa, Staphylococcus aureus, and Escherichia coli. After the coupons were washed with a 70 percent ethanol/water solution, they were placed in a sterile Petri dish, inoculated, and incubated at 32° C. for the duration of the test.
At appropriate intervals, each sample was checked for the presence of viable microorganisms by streaking each sample with a sterile cotton swab, then streaking the swab onto Tryptic Soy Agar. The plates were incubated for 48 hours at 32° C. […] The presence of microbial growth would indicate non-sterility, i.e., the sample contained viable microbial contamination.
The samples were examined for low levels of bacterial contamination by transferring an aliquot with a sterile cotton swab to a Tryptic Soy Broth in culture tubes. The tubes were incubated for 24 hours at 32° C., streaked onto Tryptic Soy Agar plates and the plates were incubated for 24 to 48 hours at 32° C.

[5] = tested on: fungus spores of Aspergillus niger, Penicillium funiculosum, and Aerobasidium pullulans; test: Shorter-term fungal test per ASTM D 5588-94; type: cell-based; conditions: after 72 hours of incubation
Protocol: Next, steel coupons were coated with the anti-microbial formulations listed above and exposed per ASTM D 5588-94 to a mixture containing the fungus spores of Aspergillus niger, Penicillium funiculosum, and Aerobasidium pullulans. After the coupons were washed with a 70 percent ethanol/water solution, they were placed in a sterile Petri dish, inoculated, and incubated at 28° C. for the duration of the test. At appropriate intervals, each sample was checked for the presence of viable microorganisms by streaking each sample with a sterile cotton swab, then streaking the swab onto Potato Dextrose Agar (adjusted to pH 3.5 for fungi). These plates were also incubated at 28° C. […] The presence of microbial growth would indicate non-sterility, i.e., the sample contained viable microbial contamination.

[6] = 5 percent agent in powder coating

SMILES | fungal growth on coating surface [2] | AVERAGE BACTERIAL COVERAGE [3] | bacterial coverage / activity relative to the control [3] | other results
Oc1cc(Cl)ccc1Oc1ccc(Cl)cc1Cl [Irgasan® DP 400, 5-chloro-2-(2,4-dichloro-phenoxy)phenol] | – | – | – | zones of inhibition ([1]; 3 percent agent in powder coating): Significant zones of inhibition
N#Cc1c(Cl)c(Cl)c(Cl)c(C#N)c1Cl [Nuocide® 960, tetrachloroisophthalonitrile] | free of visible fungal growth | 3.0 ± 1.3 | – | –
CCCOC(=O)c1ccc(O)cc1 [Propyl Parabens®] | free of visible fungal growth | 3.7 ± 0.5 | did not appear to improve the activity relative to the control | –
N#CC(Br)(Br)C(N)=O [Amerstat® 300, dibromocyanoacetamide] | a very small amount of fungal growth | 1.6 ± 1.5 | significantly improved bacterial coverage | bacterial growth on coated samples [4]: did not show conclusive results
CN1CSC(=S)N(C)C1 [Nuosept® S, 3,5-dimethyltetrahydro-1,3,5-2H-thiazine-2-thione] | did not show conclusive fungal resistance | 3.6 ± 0.5 | did not appear to improve the activity relative to the control | zones of inhibition [1, 6]: Significant zones of inhibition; zones of inhibition ([1]; 10 percent agent in powder coating): Significant zones of inhibition; inhibiting the growth of Escherichia coli and Salmonella choleraesuis, compared with the triclosan formulation [1]: performed as well as or better than the triclosan formulation
O=[N+]([O-])C(Br)(CO)CO [Canguard® 409, 2-bromo-2-nitropropane-1,3-diol] | – | – | – | zones of inhibition [1, 6]: Significant zones of inhibition; inhibiting the growth of Escherichia coli and Salmonella choleraesuis, compared with the triclosan formulation [1]: performed better than the triclosan formulation
CCCCOC(=O)c1ccc(O)cc1 [Butyl Parabens®, butyl-p-hydroxy-benzoate] | free of visible fungal growth | 2.6 ± 1.3 | – | growth on coated samples exposed to fungus spores [5]: free of (or showed very low levels of) bacterial growth; bacterial growth on coated samples [4]: free of bacterial growth and were actually sterile
